Key:
[1] = two-week treatment of C57BL/6 ob/ob mice (body weight, fat and lean body mass, food consumption, blood glucose, serum free fatty acids); assay type: in vivo, C57BL/6 ob/ob mice (lacking a functional leptin protein); conditions: two weeks
Experimental: Different groups (8 mice per group) of 4-8 week old C57BL/6 ob/ob mice (lacking a functional leptin protein) were treated with:
1) vehicle at 1 and 11 hours after light onset (HALO);
2) Buspirone ("Busp"; a 5HT1A agonist) (3 mg/kg) at 11 HALO;
3) DOI (a 5HT2 agonist) (8 mg/kg) at 11 HALO;
4) RU24969 ("RU") (5HT1B agonist) (3 mg/kg) at 11 HALO;
5) bromocriptine ("BC") (12 mg/kg BW) at 1 HALO;
6) BC (12 mg/kg) at 1 HALO plus Buspirone (3 mg/kg) at 11 HALO;
7) BC (12 mg/kg) at 1 HALO plus DOI (8 mg/kg) at 11 HALO;
8) BC (12 mg/kg) at 1 HALO plus RU (3 mg/kg) at 11 HALO;
9) SKF38393 ("SKF") (D1 agonist) (20mg/kg BW) at 1 HALO; and
10) SKF(20 mg/kg) at 1 HALO plus RU (3 mg/kg) at 11 HALO for two weeks. Animals were held on 12-hour daily photoperiods and allowed to feed ad libitum. Food consumption was monitored daily for 3 days before the initiation of treatment throughout the 14-day treatment period. Animals were sacrificed between 1 and 3 HALO on the day following the final treatment and plasma was collected for the analyses of insulin, glucose, and lipids while the carcasses were solubilized in ethanolic KOH and analyzed for protein and lipid content. Blood glucose was measured with an Accu-Chek Advantage glucose meter (Boehringer). Serum insulin was measured with a radioimmunoassay kit (Linco Research) using rat insulin standards. Total triglycerides and free fatty acids were measured with kits from Sigma Diagnostics and Wako Chemicals, respectively. Body weight gain or loss as a result of treatment is depicted in FIG. 1. Fat body mass is depicted in FIG. 2.

[2] = cited from earlier work
[3] = timed administration; cited from earlier work
[4] = in vivo; cited from earlier work
[5] = cited from earlier work; remark: listed apart in the source

Structure (SMILES)	body fat stores / fat body mass (effect in words) [1]	body weight gain (effect in words) [1]	food intake / food consumption (effect in words) [1]	also measured
CC(C)C[C@H]1C(=O)N2CCC[C@H]2[C@]2(O)O[C@](NC(=O)[C@@H]3C=C4c5cccc6[nH]c(Br)c(c56)C[C@H]4N(C)C3)(C(C)C)C(=O)N12 [Bromocriptine, 2-bromo-alpha-ergocriptine]	ineffective	ineffective	ineffective	locomotor stimulation and stereotyped behavior responses ([2]; after depletion of endogenous dopamine): blocked by depletion of endogenous dopamine; responsiveness in dopamine depleted animals given a D1 dopamine receptor agonist ([2]; dopamine depleted animals plus D1 agonist): restored; body fat stores (effect in words) [3]: reduce body fat stores; food consumption (effect in words) [3]: without a concomitant reduction in food consumption; hyperinsulinemia, hyperlipidemia, and glucose intolerance (effect in words) [3]: reduce hyperinsulinemia, hyperlipidemia, and glucose intolerance
O=C1CC2(CCCC2)CC(=O)N1CCCCN1CCN(c2ncccn2)CC1 [Buspirone]	ineffective	ineffective	ineffective	
COc1cc(CC(C)N)c(OC)cc1I (stereo not drawn) [DOI]	ineffective	ineffective	ineffective	
COc1ccc2[nH]cc(C3=CCNCC3)c2c1 [RU]		significant decrease	significant decrease	
Oc1cc2c(cc1O)C(c1ccccc1)CNCC2 (stereo not drawn) [SKF]		significant decrease	significant decrease	
CCOC(=O)C(C)(C)Oc1ccc(Cl)cc1 [clofibrate]				side effects [4]: nephrotic syndromes, myalgia, nausea, and abdominal pain
CC[C@H](C)C(=O)O[C@H]1C[C@@H](C)C=C2C=C[C@H](C)[C@H](CC[C@@H]3C[C@@H](O)CC(=O)O3)[C@H]21 [lovastatin]				total cholesterol (effect in words) ([5]; in vivo): reduces total cholesterol; increase in HDL concentrations ([5]; lovastatin (MEVACOR)): 5-10%

— patent publication US5877183A, “Treatment of lipid and glucose metabolism disorders with dopamine and serotonin agonists” (Ergo Research Corporation, priority 1997, dated 1999)
